Here are results for four compounds from patent publication US11622954B2, “Estrogen receptor ligands, compositions and methods related thereto” (The Regents of the University of California, priority 2016, dated 2023).

For series [1], the system named is multiple sclerosis. The note with it: cited from earlier work.
The subject of series [2] is adoptive EAE. Briefly: adoptive EAE clinical score (Example 2). The series is classed as in vivo, mice. Particulars: FIG. 2A; for EAE clinical score, dose dependence: high (8 mg/kg/day) and low (2 mg/kg/day) dose. The text has this:
Active EAE induction in Example 1 uses pertussis toxin to artificially make the BBB more permeable and permit more infiltration of activated Th1/Th17 immune cells into the CNS. […] Thus, an alternative EAE induction method was used. Adoptive EAE uses MOG primed and activated immune cells from donor immunized mice for subsequent transfer into recipient mice with no administration of pertussis toxin. Thus, the blood brain barrier interactions in adoptive EAE are more physiologic than in active EAE. […] This experiment was larger since 2 sets of mice (donors and recipients) were needed and 2 doses were used, making the adoptive EAE experiment 4 times larger than the active EAE experiment 1. […] Brain and spinal cord levels were undetectable 24 hours after dosing.

Series [3] is described as follows: DPN concentration 24 hours after dosing in adoptive EAE mice (Example 2). The series is classed as in vivo. On the procedure:
This experiment was larger since 2 sets of mice (donors and recipients) were needed and 2 doses were used, making the adoptive EAE experiment 4 times larger than the active EAE experiment 1.
Brain and spinal cord levels were undetectable 24 hours after dosing.

Series [4] is described as follows: tissue concentrations of DPN in healthy mice (Example 3). The series is classed as in vivo. Particulars: for levels of DPN in plasma, brain and spinal cord, compared to dosing with DPN: molar equivalent doses. On the procedure:
Compound 1 levels were not measured. […] At 12 hours, only high dose Compound 1 was detectable in plasma.
This experiment was repeated and the data above was confirmed.
This experiment was repeated with fresher standards and faster freezing of tissues once obtained from the mouse sacrifice.

Series [5] is described as follows: DPN concentration in plasma, spinal cord and brain of active EAE mice (Example 1). The note with it: three hours after the end of disease; FIG. 1B-1D.
In series [6] the test system is active EAE. Briefly: active EAE clinical score (Example 1). The series is classed as in vivo, C57BL6 female mice. The note with it: high dose (8 mg/kg DPN, 10.8 mg/kg Compound 1), every other day, day 12 to day 48; FIG. 1A.
Series [7] can be described thus: concentrations over time in plasma, spinal cord and brain, adoptive EAE setup (Example 4). The series is classed as in vivo, mice. The note with it: for persistence in brain and spinal tissue: 12 hours. On the procedure: The experimental setup and monitoring was the same as in Example 2. […] Both Compounds 1 and 2 persisted in brain and spinal tissue at 12 hours.

Series [8] has as its system EAE. Particulars: cited from earlier work.
[9] abbreviates: MS patients, phase 2 clinical trial.

SMILES strings stand for the structures.

For `C[C@]12CC[C@@H]3c4ccc(O)cc4CC[C@H]3[C@@H]1C[C@@H](O)[C@@H]2O` [estriol], in series [1] (setting [9]), the fatigue entry is reported as “reduced fatigue” and the relapses entry was “reduced relapses”. Besides, the “cortical gray matter atrophy” value in series [1] (estriol as compared to placebo treated MS patients) is “spared”.

In the case of `CC(=O)Oc1ccc(C[C@@H](C#N)c2ccc(OC(C)=O)cc2)cc1` [Compound 1], in series [2] (adoptive EAE), the “efficacy on EAE clinical score compared to DPN” value is “more efficacy”. In addition, the “EAE clinical score, dose dependence” value in series [2] is reported as “dose responses”. For the same compound, the “brain and spinal cord levels” value in series [3] is recorded as “undetectable”. In addition, the “plasma concentration of DPN, Compound 1 vs DPN” value in series [3] (FIG. 2B) is given as “no difference”. Besides, the “levels of DPN in plasma, brain and spinal cord, compared to dosing with DPN” value in series [4] (3 and 6 hours) is reported as “higher”; in series [4] (15 minutes), “lower”. Besides, the “DPN level in plasma” value in series [4] (12 hours, high dose) is reported as “detectable”. For the same compound, the “amounts of DPN in plasma, spinal cord tissue and brain tissue” value in series [5] is “improvement in maintaining effective amounts of DPN”. Moreover, the “effect on EAE disease progression (EAE clinical score)” value in series [6] is “protective effects”. Also, the “persistence in brain and spinal tissue” value in series [7] was “persisted”.

`CCC(=O)Oc1ccc(CC(C#N)c2ccc(OC(=O)CC)cc2)cc1` (stereo not drawn) [Compound 2]: the “persistence in brain and spinal tissue” value in series [7] is listed as “persisted”. The “concentration in plasma, spinal cord and brain tissue, among DPN, Compound 1 and Compound 2” value in series [7] (first 6 hours after treatment, FIG. 7A-7C) is “highest concentration”.

With `N#CC(Cc1ccc(O)cc1)c1ccc(O)cc1` (stereo not drawn) [DPN, 2,3-bis(4-hydroxyphenyl)propanenitrile, reference compound], in series [8] (dosing every two days, shown in the past), the “efficacy in EAE of dosing regimen” value was “efficacious”. Further, in series [8] (known treatment of EAE), the “clinical EAE disease severity” value is recorded as “reduces clinical EAE disease severity”. The “tolerability of dosing regimen” value in series [8] (mouse, in vivo) is reported as “tolerable”. Also, in series [2], the “EAE clinical score, dose dependence” value was “dose responses”. In addition, the “brain and spinal cord levels” value in series [3] is “undetectable”. Besides, the “effect on EAE disease progression (EAE clinical score)” value in series [6] is reported as “protective effects”.
